Measurements: the kinase profiling compilation of Christmann-Franck et al. (2016)

Experiments:
EIF2AK3 (human) = EIF2AK3 (human) (UniProt Q9NZJ5); assay: IMAP-FP
EIF2AK2 (human) = EIF2AK2 (human) (UniProt P19525); assay: IMAP-FP
PLK2 (human) = PLK2 (human) (UniProt Q9NYY3); assay: IMAP-FP
PKN1 (human) = PKN1 (human) (UniProt Q16512); assay: IMAP-FP
SRPK1 (human) = SRPK1 (human) (UniProt Q96SB4); assay: IMAP-FP
MST1R (human) = MST1R (human) (UniProt Q04912); assay: Caliper, Mobility shift assay off-chip
CSNK2A1 (human) = CSNK2A1 (human) (UniProt P68400); assay: Caliper, Mobility shift assay off-chip
TSSK3 (human) = TSSK3 (human) (UniProt Q96PN8); assay: Caliper, Mobility shift assay off-chip
MAP4K4 (human) = MAP4K4 (human) (UniProt O95819); assay: Caliper, Mobility shift assay off-chip
ERBB4 (human) = ERBB4 (human) (UniProt Q15303); assay: Caliper, Mobility shift assay off-chip
AXL (human) = AXL (human) (UniProt P30530); assay: Caliper, Mobility shift assay off-chip
PRKCG (human) = PRKCG (human) (UniProt P05129); assay: Caliper, Mobility shift assay off-chip
DYRK3 (human) = DYRK3 (human) (UniProt O43781); assay: Caliper, Mobility shift assay off-chip
TNIK (human) = TNIK (human) (UniProt Q9UKE5); assay: Caliper, Mobility shift assay off-chip
PRKD2 (human) = PRKD2 (human) (UniProt Q9BZL6); assay: Caliper, Mobility shift assay off-chip
PRKCD (human) = PRKCD (human) (UniProt Q05655); assay: Caliper, Mobility shift assay off-chip
DDR2 (human) = DDR2 (human) (UniProt Q16832); assay: Caliper, Mobility shift assay off-chip
MARK1 (human) = MARK1 (human) (UniProt Q9P0L2); assay: Caliper, Mobility shift assay off-chip; details: compound 0.001 µM
RPS6KB2 (human) = RPS6KB2 (human) (UniProt Q9UBS0); assay: Caliper, Mobility shift assay off-chip
PASK (human) = PASK (human) (UniProt Q96RG2); assay: Caliper, Mobility shift assay off-chip
Chain of PASK (human) (Q96RG2 whole entry, looked up): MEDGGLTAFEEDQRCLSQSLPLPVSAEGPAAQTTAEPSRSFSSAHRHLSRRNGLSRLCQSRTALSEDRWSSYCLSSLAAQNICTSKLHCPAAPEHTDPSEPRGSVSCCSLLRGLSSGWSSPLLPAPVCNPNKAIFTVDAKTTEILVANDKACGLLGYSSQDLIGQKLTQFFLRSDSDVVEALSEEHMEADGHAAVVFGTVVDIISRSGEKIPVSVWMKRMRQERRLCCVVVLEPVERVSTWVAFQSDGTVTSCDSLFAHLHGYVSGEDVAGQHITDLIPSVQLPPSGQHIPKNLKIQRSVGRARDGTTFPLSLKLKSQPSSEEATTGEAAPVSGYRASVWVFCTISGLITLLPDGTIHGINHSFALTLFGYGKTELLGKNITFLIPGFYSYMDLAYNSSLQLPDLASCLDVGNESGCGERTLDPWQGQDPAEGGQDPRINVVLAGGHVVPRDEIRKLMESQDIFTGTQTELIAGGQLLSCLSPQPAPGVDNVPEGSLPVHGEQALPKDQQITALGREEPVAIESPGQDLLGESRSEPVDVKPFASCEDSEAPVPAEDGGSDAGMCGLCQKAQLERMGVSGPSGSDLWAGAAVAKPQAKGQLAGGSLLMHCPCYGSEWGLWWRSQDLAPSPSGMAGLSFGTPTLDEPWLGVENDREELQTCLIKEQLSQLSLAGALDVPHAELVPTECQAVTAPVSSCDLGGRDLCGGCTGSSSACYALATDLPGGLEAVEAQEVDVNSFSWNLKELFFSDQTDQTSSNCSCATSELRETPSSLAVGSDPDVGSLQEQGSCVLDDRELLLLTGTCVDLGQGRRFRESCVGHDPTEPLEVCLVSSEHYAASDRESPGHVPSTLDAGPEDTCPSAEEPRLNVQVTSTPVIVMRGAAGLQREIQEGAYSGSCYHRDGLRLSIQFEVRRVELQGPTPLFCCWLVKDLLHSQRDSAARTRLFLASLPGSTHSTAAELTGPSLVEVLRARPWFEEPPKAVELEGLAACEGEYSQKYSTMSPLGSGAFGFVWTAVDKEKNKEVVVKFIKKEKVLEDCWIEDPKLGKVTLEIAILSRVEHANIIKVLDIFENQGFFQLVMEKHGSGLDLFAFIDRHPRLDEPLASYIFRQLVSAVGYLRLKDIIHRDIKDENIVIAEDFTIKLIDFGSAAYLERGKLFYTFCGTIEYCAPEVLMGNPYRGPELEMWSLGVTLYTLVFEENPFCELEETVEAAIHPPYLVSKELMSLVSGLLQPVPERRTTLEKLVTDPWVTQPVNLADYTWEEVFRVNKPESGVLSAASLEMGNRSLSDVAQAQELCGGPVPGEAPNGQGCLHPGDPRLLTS

PRKCH (human) = PRKCH (human) (UniProt P24723); assay: Caliper, Mobility shift assay off-chip
ZAP70 (human) = ZAP70 (human) (UniProt P43403); assay: Caliper, Mobility shift assay off-chip
CDC42BPA (human) = CDC42BPA (human) (UniProt Q5VT25); assay: Caliper, Mobility shift assay off-chip
Chain of CDC42BPA (human) (Q5VT25 whole entry, looked up): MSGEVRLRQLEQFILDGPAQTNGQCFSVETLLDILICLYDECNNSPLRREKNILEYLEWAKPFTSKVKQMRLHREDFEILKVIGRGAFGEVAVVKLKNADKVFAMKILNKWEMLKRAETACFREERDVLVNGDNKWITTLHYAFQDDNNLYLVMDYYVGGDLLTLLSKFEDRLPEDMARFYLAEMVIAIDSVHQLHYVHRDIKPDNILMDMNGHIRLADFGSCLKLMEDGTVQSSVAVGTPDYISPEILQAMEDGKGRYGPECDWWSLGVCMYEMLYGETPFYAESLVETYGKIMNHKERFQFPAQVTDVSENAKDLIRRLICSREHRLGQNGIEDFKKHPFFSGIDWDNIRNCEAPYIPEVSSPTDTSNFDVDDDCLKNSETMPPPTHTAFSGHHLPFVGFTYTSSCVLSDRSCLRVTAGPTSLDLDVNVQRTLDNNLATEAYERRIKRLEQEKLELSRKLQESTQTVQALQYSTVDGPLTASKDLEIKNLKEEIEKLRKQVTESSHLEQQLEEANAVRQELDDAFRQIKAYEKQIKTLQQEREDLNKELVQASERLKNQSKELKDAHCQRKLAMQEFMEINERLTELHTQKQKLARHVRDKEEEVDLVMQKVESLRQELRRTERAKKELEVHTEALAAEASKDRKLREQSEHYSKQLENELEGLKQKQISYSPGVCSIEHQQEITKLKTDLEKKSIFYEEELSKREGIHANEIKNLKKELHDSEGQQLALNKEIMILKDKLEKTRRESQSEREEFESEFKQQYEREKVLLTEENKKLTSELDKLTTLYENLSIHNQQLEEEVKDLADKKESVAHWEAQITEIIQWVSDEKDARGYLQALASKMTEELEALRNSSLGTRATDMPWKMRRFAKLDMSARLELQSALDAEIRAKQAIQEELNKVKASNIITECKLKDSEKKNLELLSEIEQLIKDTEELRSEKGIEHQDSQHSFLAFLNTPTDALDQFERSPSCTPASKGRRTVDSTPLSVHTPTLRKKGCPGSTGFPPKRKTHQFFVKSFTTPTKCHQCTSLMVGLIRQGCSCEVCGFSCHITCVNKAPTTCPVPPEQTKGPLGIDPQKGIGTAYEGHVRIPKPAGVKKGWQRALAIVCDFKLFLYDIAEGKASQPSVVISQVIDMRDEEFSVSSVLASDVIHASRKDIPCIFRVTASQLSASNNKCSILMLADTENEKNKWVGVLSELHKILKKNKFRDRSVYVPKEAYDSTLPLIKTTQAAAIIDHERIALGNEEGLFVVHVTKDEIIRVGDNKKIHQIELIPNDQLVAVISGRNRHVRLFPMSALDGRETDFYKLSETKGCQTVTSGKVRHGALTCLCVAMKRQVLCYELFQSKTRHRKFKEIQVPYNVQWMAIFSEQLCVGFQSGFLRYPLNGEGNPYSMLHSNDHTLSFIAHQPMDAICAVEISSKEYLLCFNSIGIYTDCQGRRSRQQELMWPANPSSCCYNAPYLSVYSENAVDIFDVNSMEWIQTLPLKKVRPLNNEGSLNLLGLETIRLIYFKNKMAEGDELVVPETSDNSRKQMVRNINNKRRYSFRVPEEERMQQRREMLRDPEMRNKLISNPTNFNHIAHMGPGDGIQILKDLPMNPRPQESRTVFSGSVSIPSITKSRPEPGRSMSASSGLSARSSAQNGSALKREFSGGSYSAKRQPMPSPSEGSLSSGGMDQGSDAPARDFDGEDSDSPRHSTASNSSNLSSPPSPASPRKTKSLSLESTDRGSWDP

MAPK14 (human) = MAPK14 (human) (UniProt Q16539); assay: Caliper, Mobility shift assay off-chip
Chain of MAPK14 (human) (Q16539 whole entry, looked up): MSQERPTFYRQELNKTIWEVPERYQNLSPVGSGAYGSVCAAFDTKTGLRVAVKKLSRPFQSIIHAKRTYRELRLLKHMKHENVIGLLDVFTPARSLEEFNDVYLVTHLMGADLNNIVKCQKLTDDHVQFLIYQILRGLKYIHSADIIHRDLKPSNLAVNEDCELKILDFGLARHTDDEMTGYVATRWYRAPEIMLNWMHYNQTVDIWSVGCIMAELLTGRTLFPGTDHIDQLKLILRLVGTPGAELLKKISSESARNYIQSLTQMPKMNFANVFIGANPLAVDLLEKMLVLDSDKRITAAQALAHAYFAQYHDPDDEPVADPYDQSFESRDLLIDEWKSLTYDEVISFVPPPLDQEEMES

GSK3A (human) = GSK3A (human) (UniProt P49840); assay: Caliper, Mobility shift assay off-chip
MAPK8 (human) = MAPK8 (human) (UniProt P45983); assay: Caliper, Mobility shift assay off-chip
CDK6 (human) = CDK6 (human) (UniProt Q00534); assay: Caliper, Mobility shift assay off-chip
Chain of CDK6 (human) (Q00534 whole entry, looked up): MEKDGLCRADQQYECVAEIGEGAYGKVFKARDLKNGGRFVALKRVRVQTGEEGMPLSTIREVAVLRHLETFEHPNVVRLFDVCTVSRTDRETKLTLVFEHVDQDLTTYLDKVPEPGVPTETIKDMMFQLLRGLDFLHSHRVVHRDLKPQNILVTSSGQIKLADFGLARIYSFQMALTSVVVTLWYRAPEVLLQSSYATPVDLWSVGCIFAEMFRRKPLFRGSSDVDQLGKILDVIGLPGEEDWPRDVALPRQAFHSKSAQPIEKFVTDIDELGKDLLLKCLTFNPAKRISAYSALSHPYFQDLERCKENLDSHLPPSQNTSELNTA

SRPK2 (human) = SRPK2 (human) (UniProt P78362); assay: Caliper, Mobility shift assay off-chip
PRKAA2 (human) = PRKAA2 (human) (UniProt P54646); assay: Caliper, Mobility shift assay off-chip
ALK EML4 (human) = ALK EML4 (human) (UniProt Q9HC35+Q9UM73); assay: Caliper, Mobility shift assay off-chip
RPS6KA2 KD1 KD2 (human) = RPS6KA2 KD1 KD2 (human) (UniProt Q15349); assay: Caliper, Mobility shift assay off-chip
Chain of RPS6KA2 KD1 KD2 (human) (Q15349 whole entry, looked up): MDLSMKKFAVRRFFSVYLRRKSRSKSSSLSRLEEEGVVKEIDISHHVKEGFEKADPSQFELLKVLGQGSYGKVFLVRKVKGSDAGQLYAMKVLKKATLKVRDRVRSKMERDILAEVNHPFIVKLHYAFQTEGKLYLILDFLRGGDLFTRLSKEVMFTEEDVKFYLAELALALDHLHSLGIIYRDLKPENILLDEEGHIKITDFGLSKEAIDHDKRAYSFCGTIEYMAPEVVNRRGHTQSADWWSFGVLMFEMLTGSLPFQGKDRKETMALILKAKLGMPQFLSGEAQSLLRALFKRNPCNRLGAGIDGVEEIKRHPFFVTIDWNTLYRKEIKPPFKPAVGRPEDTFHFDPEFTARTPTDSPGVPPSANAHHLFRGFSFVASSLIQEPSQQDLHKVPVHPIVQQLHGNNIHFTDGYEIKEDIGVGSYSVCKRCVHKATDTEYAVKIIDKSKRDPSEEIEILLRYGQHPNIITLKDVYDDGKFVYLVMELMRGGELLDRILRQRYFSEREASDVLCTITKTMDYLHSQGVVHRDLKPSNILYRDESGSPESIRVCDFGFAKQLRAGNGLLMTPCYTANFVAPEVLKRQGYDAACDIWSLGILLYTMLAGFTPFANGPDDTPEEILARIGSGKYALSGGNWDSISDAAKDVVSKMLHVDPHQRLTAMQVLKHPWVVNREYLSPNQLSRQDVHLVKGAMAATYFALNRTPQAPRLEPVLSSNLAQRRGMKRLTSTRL

AKT3 (human) = AKT3 (human) (UniProt Q9Y243); assay: Caliper, Mobility shift assay off-chip
PDPK1 (human) = PDPK1 (human) (UniProt O15530); assay: Caliper, Mobility shift assay off-chip
Chain of PDPK1 (human) (O15530 whole entry, looked up): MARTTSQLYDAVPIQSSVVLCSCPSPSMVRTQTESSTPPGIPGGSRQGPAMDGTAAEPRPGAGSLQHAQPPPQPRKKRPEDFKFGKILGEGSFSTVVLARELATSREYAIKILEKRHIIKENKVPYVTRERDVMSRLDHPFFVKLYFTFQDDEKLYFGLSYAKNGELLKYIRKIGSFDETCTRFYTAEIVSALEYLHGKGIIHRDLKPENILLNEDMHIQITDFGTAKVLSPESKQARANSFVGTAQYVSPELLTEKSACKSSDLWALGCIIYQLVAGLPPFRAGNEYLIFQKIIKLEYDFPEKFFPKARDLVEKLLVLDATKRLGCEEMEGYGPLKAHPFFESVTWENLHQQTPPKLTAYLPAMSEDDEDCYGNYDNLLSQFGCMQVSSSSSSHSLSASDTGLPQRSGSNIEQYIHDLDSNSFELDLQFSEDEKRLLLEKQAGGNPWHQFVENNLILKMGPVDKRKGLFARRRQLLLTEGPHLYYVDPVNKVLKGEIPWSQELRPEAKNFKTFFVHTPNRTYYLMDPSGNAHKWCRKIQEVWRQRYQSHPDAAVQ

LTK (human) = LTK (human) (UniProt P29376); assay: Caliper, Mobility shift assay off-chip

SMILES: CNC(=O)c1ccccc1Sc1ccc2c(/C=C/c3ccccn3)n[nH]c2c1
- inhibition (EIF2AK3 (human); compound 0.001 µM): -16.9%
- inhibition (EIF2AK3 (human); compound 0.02 µM): -10.8%
- inhibition (EIF2AK2 (human); compound 0.001 µM): -26.3%
- inhibition (EIF2AK2 (human); compound 0.02 µM): -20.8%
- inhibition (PLK2 (human); compound 0.001 µM): -3%
- inhibition (PLK2 (human); compound 0.02 µM): 1.7%
- inhibition (PKN1 (human); compound 0.001 µM): -26.9%
- inhibition (PKN1 (human); compound 0.02 µM): -21.6%
- inhibition (SRPK1 (human); compound 0.001 µM): -6.9%
- inhibition (SRPK1 (human); compound 0.02 µM): -5.3%
- inhibition (MST1R (human); compound 0.001 µM): 0.8%
- inhibition (MST1R (human); compound 0.02 µM): 1.8%
- inhibition (CSNK2A1 (human); compound 0.001 µM): -3.2%
- inhibition (CSNK2A1 (human); compound 0.02 µM): -4.4%
- inhibition (TSSK3 (human); compound 0.001 µM): -1.6%
- inhibition (TSSK3 (human); compound 0.02 µM): 0%
- inhibition (MAP4K4 (human); compound 0.001 µM): -2.3%
- inhibition (MAP4K4 (human); compound 0.02 µM): 1.2%
- inhibition (ERBB4 (human); compound 0.001 µM): 6.3%
- inhibition (ERBB4 (human); compound 0.02 µM): 3.7%
- inhibition (AXL (human); compound 0.001 µM): -0.8%
- inhibition (AXL (human); compound 0.02 µM): 4.1%
- inhibition (PRKCG (human); compound 0.001 µM): 1.2%
- inhibition (PRKCG (human); compound 0.02 µM): 17.3%
- inhibition (DYRK3 (human); compound 0.001 µM): -18.5%
- inhibition (DYRK3 (human); compound 0.02 µM): -6.4%
- inhibition (TNIK (human); compound 0.001 µM): -6%
- inhibition (TNIK (human); compound 0.02 µM): 1.4%
- inhibition (PRKD2 (human); compound 0.001 µM): -4.8%
- inhibition (PRKD2 (human); compound 0.02 µM): -2.1%
- inhibition (PRKCD (human); compound 0.001 µM): 15.6%
- inhibition (PRKCD (human); compound 0.02 µM): -0.9%
- inhibition (DDR2 (human); compound 0.001 µM): -1.6%
- inhibition (DDR2 (human); compound 0.02 µM): 2.2%
- inhibition (MARK1 (human)): -3.2%
- inhibition (RPS6KB2 (human); compound 0.001 µM): 9.2%
- inhibition (RPS6KB2 (human); compound 0.02 µM): 1.8%
- inhibition (PASK (human); compound 0.001 µM): -6.3%
- inhibition (PASK (human); compound 0.02 µM): -0.6%
- inhibition (PRKCH (human); compound 0.001 µM): 4.5%
- inhibition (PRKCH (human); compound 0.02 µM): 6.2%
- inhibition (ZAP70 (human); compound 0.001 µM): -0.5%
- inhibition (ZAP70 (human); compound 0.02 µM): 2.7%
- inhibition (CDC42BPA (human); compound 0.001 µM): 4.2%
- inhibition (CDC42BPA (human); compound 0.02 µM): 10.2%
- inhibition (MAPK14 (human); compound 0.001 µM): -8%
- inhibition (MAPK14 (human); compound 0.02 µM): -6.9%
- inhibition (GSK3A (human); compound 0.001 µM): 2.4%
- inhibition (GSK3A (human); compound 0.02 µM): 0.2%
- inhibition (MAPK8 (human); compound 0.001 µM): -3.3%
- inhibition (MAPK8 (human); compound 0.02 µM): -3.5%
- inhibition (CDK6 (human); compound 0.001 µM): 3.5%
- inhibition (CDK6 (human); compound 0.02 µM): 4.4%
- inhibition (SRPK2 (human); compound 0.001 µM): -9.3%
- inhibition (SRPK2 (human); compound 0.02 µM): -6.5%
- inhibition (PRKAA2 (human); compound 0.001 µM): 4.5%
- inhibition (PRKAA2 (human); compound 0.02 µM): 8.8%
- inhibition (ALK EML4 (human); compound 0.001 µM): -2%
- inhibition (ALK EML4 (human); compound 0.02 µM): -3.9%
- inhibition (RPS6KA2 KD1 KD2 (human); compound 0.001 µM): -0.7%
- inhibition (RPS6KA2 KD1 KD2 (human); compound 0.02 µM): 6%
- inhibition (AKT3 (human); compound 0.001 µM): -5.4%
- inhibition (AKT3 (human); compound 0.02 µM): -5.5%
- inhibition (PDPK1 (human); compound 0.001 µM): -3.6%
- inhibition (PDPK1 (human); compound 0.02 µM): -6.4%
- inhibition (LTK (human); compound 0.001 µM): 2.1%
- inhibition (LTK (human); compound 0.02 µM): 0.9%
